Data: PubChem BioAssay AID2060604 (Molecular Pharmacology Branch, DTP, NCI, 2025)

Test system: 379773-124-R-J2-PDC complex spheroids, viability % test/control
Experiment: Anticancer human tumor 379773-124-R-J2-PDC patient-derived endometrial carcinoma cell line growth inhibition [CLK]
Details: for IC50: curve of first compound; for viability, T/C: stronger effect = lower value
Procedure, shortened: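 Patient-derived tumor cells grown as complex spheroids with HUVEC endothelial cells and mesenchymal stem cells, treated with drug combinations. Concentrations descend in half-log steps from near clinical Cmax, or from 10 microM if Cmax unknown.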

[1] = second compound 0.0316 µM, first compound 0.0316 µM
[2] = second compound 0.0316 µM, first compound 0.1 µM
[3] = second compound 0.1 µM, first compound 0.0316 µM
[4] = second compound 0.1 µM, first compound 0.1 µM
[5] = second compound 0.316 µM, first compound 0.0316 µM
[6] = second compound 0.316 µM, first compound 0.1 µM
[7] = second compound 1 µM, first compound 0.0316 µM
[8] = second compound 1 µM, first compound 0.1 µM
[9] = second compound 3.16 µM, first compound 0.0316 µM
[10] = second compound 3.16 µM, first compound 0.1 µM
[11] = second compound 10 µM, first compound 0.0316 µM
[12] = second compound 10 µM, first compound 0.1 µM
[13] = second compound 0.0316 µM, first compound 0.316 µM
[14] = second compound 0.0316 µM, first compound 1 µM
[15] = second compound 0.0316 µM, first compound 3.16 µM
[16] = second compound 0.0316 µM, first compound 10 µM
[17] = second compound 0.1 µM, first compound 0.316 µM
[18] = second compound 0.1 µM, first compound 1 µM
[19] = second compound 0.1 µM, first compound 3.16 µM
[20] = second compound 0.1 µM, first compound 10 µM
[21] = second compound 0.316 µM, first compound 0.316 µM
[22] = second compound 0.316 µM, first compound 1 µM
[23] = second compound 0.316 µM, first compound 3.16 µM
[24] = second compound 0.316 µM, first compound 10 µM
[25] = second compound 1 µM, first compound 0.316 µM
[26] = second compound 1 µM, first compound 1 µM
[27] = second compound 1 µM, first compound 3.16 µM
[28] = second compound 1 µM, first compound 10 µM
[29] = second compound 3.16 µM, first compound 0.316 µM
[30] = second compound 3.16 µM, first compound 1 µM
[31] = second compound 3.16 µM, first compound 3.16 µM
[32] = second compound 3.16 µM, first compound 10 µM
[33] = second compound 10 µM, first compound 0.316 µM
[34] = second compound 10 µM, first compound 1 µM
[35] = second compound 10 µM, first compound 3.16 µM
[36] = second compound 10 µM, first compound 10 µM
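Further: compound exposure lasted seven days before the viability readout.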
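Wherever viability, T/C is given: 100% = DMSO vehicle control wells.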

Structure (SMILES): Cn1ncnc1[C@H]1c2n[nH]c(=O)c3cc(F)cc(c23)N[C@@H]1c1ccc(F)cc1 + CNC(=O)c1ccc(Nc2nc(OC3CCCC3)c3c(-c4ccc5nc(C)oc5c4)c[nH]c3n2)c(OC)c1
- IC50 (second compound 0.0316 µM): 13.7 nM
- IC50 (second compound 0.1 µM): < 0.316 nM
- IC50 (second compound 0.316 µM): < 0.316 nM
- IC50 (second compound 1 µM): < 0.316 nM
- IC50 (second compound 3.16 µM): < 0.316 nM
- IC50 (second compound 10 µM): < 0.316 nM
- viability, T/C (second compound 0.0316 µM, first compound 0.000316 µM): 71.4%
- viability, T/C (second compound 0.0316 µM, first compound 0.001 µM): 64.9%
- viability, T/C (second compound 0.0316 µM, first compound 0.00316 µM): 65.7%
- viability, T/C (second compound 0.0316 µM, first compound 0.01 µM): 56.2%
- viability, T/C [1]: 34.6%
- viability, T/C [2]: 14.7%
- viability, T/C (second compound 0.1 µM, first compound 0.000316 µM): 41.1%
- viability, T/C (second compound 0.1 µM, first compound 0.001 µM): 35.1%
- viability, T/C (second compound 0.1 µM, first compound 0.00316 µM): 26.6%
- viability, T/C (second compound 0.1 µM, first compound 0.01 µM): 26.9%
- viability, T/C [3]: 17.6%
- viability, T/C [4]: 13.1%
- viability, T/C (second compound 0.316 µM, first compound 0.000316 µM): 39%
- viability, T/C (second compound 0.316 µM, first compound 0.001 µM): 38.5%
- viability, T/C (second compound 0.316 µM, first compound 0.00316 µM): 32.1%
- viability, T/C (second compound 0.316 µM, first compound 0.01 µM): 27.2%
- viability, T/C [5]: 17.1%
- viability, T/C [6]: 8.94%
- viability, T/C (second compound 1 µM, first compound 0.000316 µM): 39.4%
- viability, T/C (second compound 1 µM, first compound 0.001 µM): 30.3%
- viability, T/C (second compound 1 µM, first compound 0.00316 µM): 27.8%
- viability, T/C (second compound 1 µM, first compound 0.01 µM): 21.5%
- viability, T/C [7]: 14%
- viability, T/C [8]: 7.18%
- viability, T/C (second compound 3.16 µM, first compound 0.000316 µM): 35.4%
- viability, T/C (second compound 3.16 µM, first compound 0.001 µM): 31.1%
- viability, T/C (second compound 3.16 µM, first compound 0.00316 µM): 24.1%
- viability, T/C (second compound 3.16 µM, first compound 0.01 µM): 25.2%
- viability, T/C [9]: 16.6%
- viability, T/C [10]: 10.1%
- viability, T/C (second compound 10 µM, first compound 0.000316 µM): 25.4%
- viability, T/C (second compound 10 µM, first compound 0.001 µM): 30.7%
- viability, T/C (second compound 10 µM, first compound 0.00316 µM): 23.5%
- viability, T/C (second compound 10 µM, first compound 0.01 µM): 19.1%
- viability, T/C [11]: 15.1%
- viability, T/C [12]: 9.79%

Structure (SMILES): O=C(c1cc(Cc2n[nH]c(=O)c3ccccc23)ccc1F)N1CCN(C(=O)C2CC2)CC1 + CN1CCN(c2cc(C(=O)Nc3cc4cc(-c5cnn(C)c5)ccc4cn3)ccn2)CC1
- IC50 (second compound 0.0316 µM): > 10000 nM
- IC50 (second compound 0.1 µM): 6850 nM
- IC50 (second compound 0.316 µM): < 31.6 nM
- IC50 (second compound 1 µM): < 31.6 nM
- IC50 (second compound 3.16 µM): < 31.6 nM
- IC50 (second compound 10 µM): < 31.6 nM
- viability, T/C [1]: 101%
- viability, T/C [2]: 98.7%
- viability, T/C [13]: 87.9%
- viability, T/C [14]: 89.9%
- viability, T/C [15]: 78.6%
- viability, T/C [16]: 51.7%
- viability, T/C [3]: 73.5%
- viability, T/C [4]: 76.6%
- viability, T/C [17]: 87.8%
- viability, T/C [18]: 94.2%
- viability, T/C [19]: 76.6%
- viability, T/C [20]: 36.9%
- viability, T/C [5]: 16.7%
- viability, T/C [6]: 22.3%
- viability, T/C [21]: 15.1%
- viability, T/C [22]: 23.2%
- viability, T/C [23]: 16.8%
- viability, T/C [24]: 12.3%
- viability, T/C [7]: 0.11%
- viability, T/C [8]: 1.49%
- viability, T/C [25]: 0.2%
- viability, T/C [26]: 1.01%
- viability, T/C [27]: 0.08%
- viability, T/C [28]: 1.87%
- viability, T/C [9]: 1.24%
- viability, T/C [10]: 0.11%
- viability, T/C [29]: 1.32%
- viability, T/C [30]: 0.09%
- viability, T/C [31]: 0.1%
- viability, T/C [32]: 0.09%
- viability, T/C [11]: 0.19%
- viability, T/C [12]: 0.11%
- viability, T/C [33]: 0.46%
- viability, T/C [34]: 0.66%
- viability, T/C [35]: 0.18%
- viability, T/C [36]: 0.19%

Structure (SMILES): C=CC(=O)N1CCN(c2nc(=O)n(-c3c(C)ccnc3C(C)C)c3nc(-c4c(O)cccc4F)c(F)cc23)C(C)C1 (stereo unspecified) + CN1CCN(c2cc(C(=O)Nc3cc4cc(-c5cnn(C)c5)ccc4cn3)ccn2)CC1
- IC50 (second compound 0.0316 µM): > 10000 nM
- IC50 (second compound 0.1 µM): > 10000 nM
- IC50 (second compound 0.316 µM): < 31.6 nM
- IC50 (second compound 1 µM): < 31.6 nM
- IC50 (second compound 3.16 µM): < 31.6 nM
- IC50 (second compound 10 µM): < 31.6 nM
- viability, T/C [1]: 105%
- viability, T/C [2]: 92.5%
- viability, T/C [13]: 91.2%
- viability, T/C [14]: 94.4%
- viability, T/C [15]: 84.6%
- viability, T/C [16]: 75.2%
- viability, T/C [3]: 85.5%
- viability, T/C [4]: 79.2%
- viability, T/C [17]: 72.5%
- viability, T/C [18]: 88.1%
- viability, T/C [19]: 84.2%
- viability, T/C [20]: 62.5%
- viability, T/C [5]: 29.6%
- viability, T/C [6]: 32.8%
- viability, T/C [21]: 29.3%
- viability, T/C [22]: 29.2%
- viability, T/C [23]: 38.5%
- viability, T/C [24]: 13.2%
- viability, T/C [7]: 0.15%
- viability, T/C [8]: 3.06%
- viability, T/C [25]: 0.25%
- viability, T/C [26]: 1.12%
- viability, T/C [27]: 1.01%
- viability, T/C [28]: 0.17%
- viability, T/C [9]: 0.18%
- viability, T/C [10]: 0.13%
- viability, T/C [29]: 0.13%
- viability, T/C [30]: 0.34%
- viability, T/C [31]: 1.33%
- viability, T/C [32]: 1.3%
- viability, T/C [11]: 0.12%
- viability, T/C [12]: 0.54%
- viability, T/C [33]: 1.42%
- viability, T/C [34]: 0.17%
- viability, T/C [35]: 1.04%
- viability, T/C [36]: 0.5%
